From patent US10358446B2, “Bruton's tyrosine kinase inhibitors” (Zibo Biopolar Changsheng Pharmaceutical Co. Ltd., priority 2015, dated 2019)

The compounds below were run against BTK (Homo sapiens (Human), UniProt Q06187) (assay: Btk kinase assay (HTRF)). Conditions: [ATP]=80 μM, BTK=3.4 nM; read-out: BTK Inhibition.
Type: biochemical
In short: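 BTK (3.4 nM) incubated 1 h with inhibitor, 80 μM ATP and 1 μM peptide substrate in 50 mM HEPES pH 7.0 with BSA and orthovanadate. Reaction stopped with EDTA plus Eu-antibody/XL665; HTRF 665/615 ratio read after 1 h, IC50 calculated relative to no-inhibitor and no-enzyme controls.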

Sequence of BTK (Q06187 whole entry, species assumed): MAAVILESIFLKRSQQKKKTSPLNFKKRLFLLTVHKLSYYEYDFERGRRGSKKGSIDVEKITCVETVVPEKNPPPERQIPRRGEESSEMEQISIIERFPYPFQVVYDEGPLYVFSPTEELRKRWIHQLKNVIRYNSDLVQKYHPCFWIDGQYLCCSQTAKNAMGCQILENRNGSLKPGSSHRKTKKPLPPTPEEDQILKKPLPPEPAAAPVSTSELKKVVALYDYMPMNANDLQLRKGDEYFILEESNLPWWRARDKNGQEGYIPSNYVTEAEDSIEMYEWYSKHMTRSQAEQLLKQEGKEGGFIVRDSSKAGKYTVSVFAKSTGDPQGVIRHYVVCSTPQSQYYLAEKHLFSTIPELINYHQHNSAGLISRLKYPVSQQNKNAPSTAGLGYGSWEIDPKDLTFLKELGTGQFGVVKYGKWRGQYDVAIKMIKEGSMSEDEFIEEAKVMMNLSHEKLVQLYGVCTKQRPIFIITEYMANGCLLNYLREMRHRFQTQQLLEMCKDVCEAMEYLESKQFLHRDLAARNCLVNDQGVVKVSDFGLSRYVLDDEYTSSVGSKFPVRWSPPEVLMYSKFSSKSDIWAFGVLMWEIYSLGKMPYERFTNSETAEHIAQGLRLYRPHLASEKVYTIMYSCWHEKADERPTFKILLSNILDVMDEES

Row | SMILES | IC50 [nM]
1 | C=CC(=O)Nc1cccc(-n2c(=O)n(-c3ccc(Oc4cccc(F)c4)c(F)c3)c3cnccc32)c1 [Example 90, N-(3-(3-(3-fluoro-4-(3-fluorophenoxy)phenyl)-2-oxo-2,3-dihydro-1H-imidazo[4,5-c]pyridin-1-yl)phenyl)acrylamide] | 10 to 100
2 | C=CC(=O)N1CC[C@@H](n2c(=O)n(-c3ccc(OCc4cc(F)cc(F)c4)c(Cl)c3)c3cnccc32)C1 [Example 207, (R)-1-(1-acryloylpyrrolidin-3-yl)-3-(3-chloro-4-((3,5-difluorobenzyl)oxy)phenyl)-1H-imidazo[4,5-c]pyridin-2(3H)-one] | 100 to 1000
3 | C=CC(=O)N1CC[C@@H](n2c(=O)n(-c3ccc(OCc4ccc(C(F)(F)F)cc4)c(Cl)c3)c3cnccc32)C1 [Example 205, (R)-1-(1-acryloylpyrrolidin-3-yl)-3-(3-chloro-4-((4-(trifluoromethyl)benzyl)oxy)phenyl)-1H-imidazo[4,5-c]pyridin-2(3H)-one] | 100 to 1000
4 | C=C(C)C(=O)N1CC[C@@H](n2c(=O)n(-c3cccc(Oc4ccccc4)c3)c3cnccc32)C1 [Example 156, (R)-1-(1-methacryloylpyrrolidin-3-yl)-3-(3-phenoxyphenyl)-1H-imidazo[4,5-c]pyridin-2(3H)-one] | 1000 to 10000
5 | C=CC(=O)N1CC[C@@H](n2c(=O)n(-c3ccc(Oc4ccccc4)cc3)c3c([N+](=O)[O-])cccc32)C1 [Example 189, (R)-1-(1-acryloylpyrrolidin-3-yl)-4-nitro-3-(4-phenoxyphenyl)-1H-benzo[d]imidazol-2(3H)-one] | ≥ 10000
6 | C=CC(=O)N1CC[C@@H](n2c(=O)n(-c3ccc(Oc4cccc(OC(C)C)c4)cc3)c3cnccc32)C1 [Example 25, (R)-1-(1-acryloylpyrrolidin-3-yl)-3-(4-(3-isopropoxyphenoxy)phenyl)-1H-imidazo[4,5-c]pyridin-2(3H)-one] | ≤ 10
7 | C=CC(=O)N1CC[C@@H](n2c(=O)n(-c3ccc(Oc4cccc(Cl)c4OC)cc3)c3cnccc32)C1 [Example 63, (R)-1-(1-acryloylpyrrolidin-3-yl)-3-(4-(3-chloro-2-methoxyphenoxy)phenyl)-1H-imidazo[4,5-c]pyridine-2(3H)-one] | 10 to 100
8 | C=CC(=O)N1CCC[C@@H](n2c(=O)n(-c3ccc(Oc4ccccc4)c(F)c3)c3cnccc32)C1 [Example 12, (R)-1-(1-acryloylpiperidin-3-yl)-3-(3-fluoro-4-phenoxyphenyl)-1H-imidazo[4,5-c]pyridin-2(3H)-one] | 10 to 100
9 | C=CC(=O)Nc1cccc(-n2c(=O)n(-c3cccc(Oc4ccccc4)c3)c3cnccc32)c1 [Example 7, N-(3-(2-oxo-3-(3-phenoxyphenyl)-2,3-dihydro-1H-imidazo[4,5-c]pyridin-1-yl)phenyl)acrylamide] | 10 to 100
10 | C=CC(=O)Nc1cccc(-n2c(=O)n(-c3ccc(Oc4ccc(C(F)(F)F)cc4)cc3)c3cnccc32)c1 [Example 123, N-(3-(2-oxo-3-(4-(4-(trifluoromethyl)phenoxy)phenyl)-2,3-dihydro-1H-imidazo[4,5-c]pyridin-1-yl)phenyl)acrylamide] | ≥ 10000
11 | C=CC(=O)Nc1cccc(-n2c(=O)n(-c3ccc(NC(=O)c4ccccc4C(F)(F)F)cc3)c3cnccc32)c1 [Example 262, N-(4-(1-(3-acrylamidophenyl)-2-oxo-1,2-dihydro-3H-imidazo[4,5-c]pyridin-3-yl)phenyl)-2-(trifluoromethyl)benzamide] | 100 to 1000
12 | C=CC(=O)Nc1cccc(-n2c(=O)n(-c3ccc(Oc4ccccc4)cc3)c3ncccc32)c1 [Example 119, N-(3-(2-oxo-3-(4-phenoxyphenyl)-2,3-dihydro-1H-imidazo[4,5-b]pyridin-1-yl)phenyl)acrylamide] | 1000 to 10000
13 | C=CC(=O)Nc1cccc(-n2c(=O)n(-c3ccc(OCc4cc(F)c(F)cc4F)cc3)c3cnccc32)c1 [Example 195, N-(3-(2-oxo-3-(4-((2,4,5-trifluorobenzyl)oxy)phenyl)-2,3-dihydro-1H-imidazo[4,5-c]pyridin-1-yl)phenyl)acrylamide] | 10 to 100
14 | C=CC(=O)N1CCC[C@@H](n2c(=O)n(-c3ccc(Oc4cccc(Cl)c4)cc3)c3cnccc32)C1 [Example 106, (R)-1-(1-acryloylpiperidin-3-yl)-3-(4-(3-chlorophenoxy)phenyl)-1H-imidazo[4,5-c]pyridin-2(3H)-one] | 10 to 100

More lines, now with the values ahead:

Row | IC50 [nM] | SMILES
15 | 10 to 100 | C=CC(=O)N1CCC[C@@H](n2c(=O)n(-c3ccc(Oc4cccc(C)c4OC)cc3)c3cnccc32)C1 [Example 66, (R)-1-(1-acryloylpiperidin-3-yl)-3-(4-(2-methoxy-3-methylphenoxy)phenyl)-1H-imidazo[4,5-c] pyridin-2(3H)-one]
16 | ≥ 10000 | C=CC(=O)N1CCC(n2c(=O)n(-c3ccc(Oc4ccccc4)cc3)c3cnccc32)CC1 [Example 30, 1-(1-acryloylpiperidin-4-yl)-3-(4-phenoxyphenyl)-1H-imidazo[4,5-c]pyridin-2(3H)-one]
17 | 10 to 100 | C=CC(=O)Nc1cccc(-n2c(=O)n(-c3cccc(OCc4ccccc4)c3)c3cnccc32)c1 [Example 233, N-(3-(3-(3-(benzyloxy)phenyl)-2-oxo-2,3-dihydro-1H-imidazo[4,5-c]pyridin-1-yl)phenyl)acrylamide]
18 | 10 to 100 | C=CC(=O)Nc1cccc(-n2c(=O)n(-c3ccc(NC(=O)c4ccccc4OC)cc3)c3cnccc32)c1 [Example 258, N-(4-(1-(3-acrylamidophenyl)-2-oxo-1H-imidazo[4,5-c]pyridin-3(2H)-yl)phenyl)-2-methoxybenzamide]
19 | 10 to 100 | C=CC(=O)N1CC[C@@H](n2c(=O)n(-c3ccc(Oc4ccc(OC)c(OC)c4)cc3)c3cnccc32)C1 [Example 40, (R)-1-(1-acryloylpyrrolidin-3-yl)-3-(4-(3,4-dimethoxyphenoxy)phenyl)-1H-imidazo[4,5-c]pyridin-2(3H)-one]
20 | 100 to 1000 | C=CC(=O)N1CC[C@@H](n2c(=O)n(-c3ccc(Oc4ccccc4)cc3)c3c(N)cccc32)C1 [Example 190, (R)-1-(1-acryloylpyrrolidin-3-yl)-4-amino-3-(4-phenoxyphenyl)-1H-benzo[d]imidazol-2(3H)-one]
21 | 1000 to 10000 | C=CC(=O)N1CC[C@@H](n2c(=O)n(-c3ccc(OCc4ccc(Cl)c(Cl)c4)c(Cl)c3)c3cnccc32)C1 [Example 215, (R)-1-(1-acryloylpyrrolidin-3-yl)-3-(3-chloro-4-((3,4-dichlorobenzyl)oxy)phenyl)-1H-imidazo[4,5-c]pyridin-2(3H)-one]
22 | 100 to 1000 | C=CC(=O)Nc1cccc(-n2c(=O)n(-c3ccc(OCc4ccc(C(F)(F)F)cc4)cc3)c3cnccc32)c1 [Example 242, N-(3-(2-oxo-3-(4-((4-(trifluoromethyl)benzyl)oxy)phenyl)-2,3-dihydro-1H-imidazo[4,5-c]pyridin-1-yl)phenyl)acrylamide]
23 | 100 to 1000 | CC(C)(C)/C=C(/C#N)C(=O)N1CCCC1Cn1c(=O)n(-c2ccc(Oc3ccccc3)cc2)c2cnccc21 (centres unmarked) [Example 180, 4,4-Dimethyl-2-{2-[2-oxo-3-(4-phenoxy-phenyl)-2,3-dihydro-imidazo[4,5-c]pyridin-1-ylmethyl]-pyrrolidine-1-carbonyl}-pent-2-enenitrile]
24 | 1000 to 10000 | C=CC(=O)Nc1cccc(-n2c(=O)n(-c3ccc(C(=O)Nc4cccc(C(F)(F)F)c4)cc3)c3cnccc32)c1 [Example 251, 4-(1-(3-acrylamidophenyl)-2-oxo-1H-imidazo[4,5-c]pyridin-3(2H)-yl)-N-(3-(trifluoromethyl)phenyl)benzamide]
25 | 10 to 100 | C=CC(=O)N1CCCC1Cn1c(=O)n(-c2ccc(Oc3ccccc3)cc2)c2cnccc21 (centres unmarked) [Example 21, 1-((1-acryloylpyrrolidin-2-yl)methyl)-3-(4-phenoxyphenyl)-1H-imidazo[4,5-c]pyridin-2(3H)-one]
26 | 10 to 100 | C=CC(=O)Nc1cccc(-n2c(=O)n(-c3ccc(Oc4cccc(OC(C)C)c4)c(F)c3)c3cnccc32)c1 [Example 48, N-(3-(3-(3-fluoro-4-(3-isopropoxyphenoxy)phenyl)-2-oxo-2,3-dihydro-1H-imidazo[4,5-c]pyridin-1-yl)phenyl)acrylamide]
27 | 10 to 100 | C=CC(=O)N1CCC(n2c(=O)n(-c3ccc(Oc4cccc(OC(F)(F)F)c4)cc3)c3cnccc32)C1 (centres unmarked) [Example 112, 1-(1-acryloylpyrrolidin-3-yl)-3-(4-(3-(trifluoromethoxy)phenoxy)phenyl)-1H-imidazo[4,5-c]pyridin-2(3H)-one]
28 | 1000 to 10000 | O=C(O)C(=O)N1CCCC(n2c(=O)n(-c3ccc(Oc4ccccc4)cc3)c3cnccc32)C1 (centres unmarked) [Example 192, 2-oxo-2-(3-(2-oxo-3-(4-phenoxyphenyl)-2,3-dihydro-1H-imidazo[4,5-c]pyridin-1-yl)piperidin-1-yl)acetic acid]
29 | 10 to 100 | C=CC(=O)Nc1cccc(-n2c(=O)n(-c3ccc(-c4ccccc4)cc3)c3cnccc32)c1 [Example 271, N-(3-(3-([1,1′-biphenyl]-4-yl)-2-oxo-2,3-dihydro-1H-imidazo[4,5-c]pyridin-1-yl)phenyl)acrylamide]
30 | 100 to 1000 | C=CC(=O)Nc1cccc(-n2c(=O)n(-c3ccc(C(=O)NCc4cccc(OC)c4)cc3)c3cnccc32)c1 [Example 252, 4-(1-(3-acrylamidophenyl)-2-oxo-1H-imidazo[4,5-c]pyridin-3(2H)-yl)-N-(3-methoxybenzyl)benzamide]
31 | 10 to 100 | C=CC(=O)Nc1cccc(-n2c(=O)n(-c3ccc(Oc4ccc(OC)c(OC)c4)cc3)c3cnccc32)c1 [Example 131, N-(3-(3-(4-(3,4-dimethoxyphenoxy)phenyl)-2-oxo-2,3-dihydro-1H-imidazo[4,5-c]pyridin-1-yl)phenyl)acrylamide]
32 | 10 to 100 | C=CC(=O)N1CCC[C@@H](n2c(=O)n(-c3ccc(Oc4ccccc4)c(Cl)c3)c3cnccc32)C1 [Example 107, (R)-1-(1-acryloylpiperidin-3-yl)-3-(3-chloro-4-phenoxyphenyl)-1H-imidazo[4,5-c]pyridin-2(3H)-one]
